# According to patent publication US7504095B2, “Method for obtaining precursor Z and use thereof for the production of a means for therapy of human molybdenum cofactor deficiency” (Technische Universitaet Braunschweig, priority 2004, dated 2009):
# Tests used:
# MOCS1-deficient mice [1] = assay: Cessation or delayed initiation of precursor Z treatment; assay type: in vivo
# From the text: In order to test whether the treatment with precursor Z can be halted after a certain developmental stage, we stopped the injection of precursor Z in homozygouse mutants on days 1 (n=3), 12 (n=4), 26-28 (n=3) and 64-68 (n=2) after birth. A single injection of precursor Z after day one led to death after 15-18 days. […] At the age of 26-28 days, in which the previously described critical period falls, the cessation of administration of precursor Z led to death within 4-7 days. Cessation after 64-68 days led to reduced exploration of the environment after 7 days and to death after 9-10 days. In order to successfully correct the phenotype, the administration with precursor Z had to be initiated within 5 days following birth.
# MOCS1-deficient mice [2] = assay: Light/dark box test; assay type: in vivo; settings: treated MOCS1-deficient mice
# Procedure: (§1) Avoidance of light was tested in the light/dark box, in which the animals were placed into the light area and the time was determined until the animals sought out the darker area. […] The results were compared with wild-type controls. The mice were sequentially introduced into all four sectors and the time was measured until the animals found and climbed onto the platform (FIG. 7). […] In a second test series, the average swim time was reduced to 20-25% of the first test both in the “knockout” mice as well as with the control animals. In a third test series, the platform was removed and the time was measured that the mice spent in the “correct” sector—the sector that previously contained the platform. Both groups spent approximately 50% of the time in the correct sector.
# MOCS1-deficient mice [3] = assay: Water labyrinth learning test; assay type: in vivo
# Procedure: FIG. 7: Ability to train precursor Z-treated MOCS1-deficient mice in a water labyrinth. The values represented a cross section of six wildtype- (wt, black bars) and six precursor Z treated MOCS1-deficient mice (MOCS1 ^−/−, white bars). […] C, time (of a total of 120 seconds), spent in the correct sector (without platform), which were learned in passes A and B.
# as §1
# sulphite oxidase = assay: Sulphite oxidase activity in liver after last injection; assay type: in vivo, mice
# Procedure: (§2) FIG. 6: Restoration of the MPT-biosynthesis in vitro and in vivo. (a) In vitro restoration of MOCS1-deficient liver extracts with precursor Z. Protein raw extract of a five day old MOCS1^−/− were incubated (1 h) with the indicated amounts of purified precursor Z per mg protein. Restoration of MPT-synthesis was measured by means of nit-1 reconstitution assay. (b-d) Biochemical analysis of precursor Z treated MOCS1-deficient animals. The mice were twice weekly injected with increasing amounts of precursor Z, beginning with 2 μg after birth and up to 8 μg after weaning. Between the days 25-55 after birth the treatment was stopped. On day 0 (4 hours after the last injection), 1, 4 and 7 respectively, two mice were sacrificed. Two liver samples of each animal were removed and separately further processed. Each value in the figure was thus determined four times. […]
# (§3) In homozygote MOCS1^−/−-animals, in which precursor Z was injected regularly and which appeared normal with regard to weight, appearance and behavior, the treatment was halted and the animals were sacrificed sequentially at days 0, 1, 4 and 7 after the last injection in order to determine the MPT-content and the Mo-enzyme activity in the liver (FIG. 6b-d). Due to the rapid conversion of the administered precursor Z to MPT, the highest MPT-value was measured on the day of the injection (16±1% of the wildtype; FIG. 6b). […]
# MOCS1-deficient mice [4] = assay: Lifespan and phenotype of MOCS1-/- mice injected with precursor Z into the liver; assay type: in vivo; settings: for Average Lifespan: injected into the liver
# Procedure: The half-life of sulphite oxidase in rat liver was determined to be 3-4 days^B27.
# The lowest dose amounted to 0.2 μg precursor Z, administered every second day. […] With the administration of 1-2 μg every third day the mice achieved a greater age and were suckled until day 20-30, thereafter the MOCS1^−/ animals however appeared slower in their flight reaction and in their internalization of their environment than the corresponding control animals. This difference disappeared about day 40, after which all MOCS1^−/− animals were as agile and full of life as the control individuals. […] The injection of 2-4 μg precursor Z every third day ws found to be the most successful treatment.
# xanthine dehydrogenase = assay: Xanthine dehydrogenase activity in liver after last injection; assay type: in vivo, mice
# Procedure: as §2, §3
# MOCS1-deficient mice [5] = assay: Morphologic examination of tissues of treated knockout mice; assay type: in vivo
# Procedure: FIG. 8: Morphologic comparison of kidneys (a, b) and brain sections (c,d) of wildtype- (a,c) and precursor Z-treated MOCS1-deficient mice, (b,d). Treatment was with 2-4 μg each third day. (a) Regular kidneys with normal glomerulus (arrow), characteristic developed tubuli and thin (narrow) interstices (200×). […] Proximal tubuli were extended (28+/−19%). […] The glomerulus is normal (arrow). (c,d) Corresponding coronal brain sections (Cx, Cortex; Hi, Hippocampus; Str, Striatum; Th, Thalamus; Hy, Hypothalamus) of wildtype-(c) and precursor Z-treated MOCS1^−/− mice (d).
# Tissue from heart, skeletal muscle, lung, pancreas, thyroid, spleen and liver (data not shown) as well as brain (FIG. 8c-d) were examined.
# MOCS1-deficient mice [6] = assay: Running wheel test; assay type: in vivo; settings: 10 and 20 RPM
# MOCS1-deficient mice [7] = assay: Open field test; assay type: in vivo; design: dose or concentration left out as unconfirmed; settings: precursor Z every third day
# Total-MPT inclusive Moco = assay: MPT content in liver after last injection; assay type: in vivo, mice
# Procedure: as §2, §3
smiles,measurement,setting,value
Nc1nc2c(c(=O)[nH]1)N[C@@H]1[C@H](N2)O[C@@H]2COP(=O)(O)O[C@@H]2C1(O)O [precursor Z],death after cessation,MOCS1-deficient mice [1]; cessation after 64-68 days,9 to 10 days
same,onset of reduced exploration of the environment after cessation,MOCS1-deficient mice [1]; cessation after 64-68 days,7 days
same,death after cessation,MOCS1-deficient mice [1]; cessation at the age of 26-28 days,4 to 7 days
same,death after the last injection,MOCS1-deficient mice [1]; cessation on day 12,7 to 9 days
same,onset of limited exploration of the environment after the last injection,MOCS1-deficient mice [1]; cessation on day 12,6 days
same,improvement of the phenotype or the life expectancy,MOCS1-deficient mice [1]; initiation of treatment after 7 or 10 days,no significant improvement
same,time after birth within which administration had to be initiated to correct the phenotype,"MOCS1-deficient mice [1]; mouse, in vivo",≤ 5 days
same,time of death,"MOCS1-deficient mice [1]; single injection, treatment stopped on day 1",15 to 18 days
same,light/dark box: time until seeking the darker area versus wild type,MOCS1-deficient mice [2],no significant difference
same,water labyrinth: finding the platform versus wild-type controls,MOCS1-deficient mice [3]; first series of tests,more rapidly than the wild-type control animals
same,water labyrinth: average swim time as % of the first test,MOCS1-deficient mice [3]; second test series,20-25%
same,water labyrinth: time spent in the correct sector,"MOCS1-deficient mice [3]; third test series, platform removed",approximately 50%
same,"sulphite oxidase activity, course",sulphite oxidase; day 0 to day 1 after the last injection,rise
same,sulphite oxidase activity (% of wildtype) versus reconstituted MPT-content,sulphite oxidase; liver,higher than the reconstituted MPT-content
same,development and weight gain,"MOCS1-deficient mice [4]; 0.2 μg every second day, 11 mice",developed normally
same,Average Lifespan,MOCS1-deficient mice [4]; 0.2 μg every second day,17.7 days
same,Average Lifespan,MOCS1-deficient mice [4]; 1 μg (prior to weaning) and 2 μg (after weaning) every third day,32.9 days
same,Average Lifespan,MOCS1-deficient mice [4]; 1 μg every third day,25.2 days
same,Average Lifespan,MOCS1-deficient mice [4]; 2 μg every second day,47.4 days
same,fraction of treated animals that died between day 20 and 40,MOCS1-deficient mice [4]; 1-2 μg every third day,Approximately half
same,deaths between days 40-70,MOCS1-deficient mice [4]; 2-4 μg every third day,no animal died
same,offspring of pairings of treated animals,MOCS1-deficient mice [4]; 2-4 μg every third day,"normally developed, healthy off-spring"
same,"difference in weight, behavior or other phenotypic characteristics versus wild type or heterozygous siblings",MOCS1-deficient mice [4]; prior to weaning,no difference could be determined
same,"xanthin dehydrogenase activity, course",xanthine dehydrogenase; after day 1,rapidly decreased
same,xanthin-dehydrogenase activity (% of wildtype) versus reconstituted MPT-content,xanthine dehydrogenase; liver,higher than the reconstituted MPT-content
same,enlargement of the matrix of the interstices,MOCS1-deficient mice [5]; 2-4 μg each third day,13+/−13%
same,extension of proximal tubuli,MOCS1-deficient mice [5]; 2-4 μg each third day,28+/−19%
same,kidney stones,MOCS1-deficient mice [5]; 2-4 μg each third day,numerous stones in the tubuli
same,kidney morphology,MOCS1-deficient mice [5]; beginning day 20 after birth,bilateral abnormal kidneys
same,morphology besides kidney,"MOCS1-deficient mice [5]; heart, skeletal muscle, lung, pancreas, thyroid, spleen, liver, brain",no further morphologic abnormality
same,running wheel: limitations of movement,MOCS1-deficient mice [6],Limitations of movement were not shown
same,"open field: movement, learning and social behavior versus wildtype",MOCS1-deficient mice [7],no significant differences
same,MPT-value in liver,"Total-MPT inclusive Moco; day of the injection (day 0, 4 hours after the last injection)",16±1 % of the wildtype
same,MPT-content in liver,Total-MPT inclusive Moco; within the following four days after last injection,less than 4 % of the wildtype value
